Experiments:
Alr1666 (PatP) = experiment: LC-MS/MS identification of Alr1666-generated non-tryptic PatX peptides; type: biochemical, Nostoc PCC 7120; conditions: LC-MS/MS of excised 18–25 kDa gel region; three experimental replicates; with vs without Alr1666-V5
From the text: Figure 5 Ex vivo cleavage assay of TrxA-PatXΔSS-MBP by the putative peptidase Alr1666 (A) Schematic of the TrxA-PatXΔSS-MBP fusion protein construct, shown before and after potential cleavage by Alr1666. (B) Immunoblot analysis of cleavage assays. Expression of trxA-patXΔSS-malE was induced with IPTG; expression of alr1666-V5 was induced with arabinose. The blot was probed with anti-TrxA antibodies (top panel) to detect the full-length TrxA-PatXΔSS-MBP fusion and any TrxA-PatX cleavage product, and with anti-V5 antibodies (bottom panel) to confirm Alr1666-V5 production. Lanes: 1, no inducer (negative control); 2, IPTG for 3 h; 3, IPTG for 1 h; 4, co-induction with IPTG and arabinose for 3 h; 5, sequential induction (IPTG for 1 h, then arabinose for 3 h). (C) Liquid chromatography-tandem mass spectrometry analysis of peptides from excised gel bands (see Figure S6A). […] Trx-PatXΔSS-MBP + Alr1666-V5: Experimental assay with Alr1666-V5. ∗0 values: No non-tryptic peptides were detected in control samples. […]
The 18–25 kDa region was excised to identify PatX-cleavage peptides by mass spectrometry (Figure S6A). Because higher molecular-weight bands smear downward during SDS-PAGE, the excised slice also contains proteins from those upper regions, and they will be detected as well. […] They were uniquely detected in Alr1666-expressing samples ([…]). […]

HetR [1] = molecular target: T1, HetR (Nostoc sp., UniProt P27709); conditions: cited from earlier work
T1 construct: made in house
T1 sequence (P27709 1-299): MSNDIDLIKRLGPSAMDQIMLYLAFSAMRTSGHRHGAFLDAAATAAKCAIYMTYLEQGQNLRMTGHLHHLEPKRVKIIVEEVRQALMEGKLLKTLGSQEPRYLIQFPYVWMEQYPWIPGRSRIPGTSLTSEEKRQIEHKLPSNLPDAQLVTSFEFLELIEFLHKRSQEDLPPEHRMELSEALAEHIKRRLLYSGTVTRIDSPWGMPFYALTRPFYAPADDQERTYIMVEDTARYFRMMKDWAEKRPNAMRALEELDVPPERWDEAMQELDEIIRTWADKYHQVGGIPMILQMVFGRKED
From the text: Heterocyst differentiation involves four stages—induction, pattern formation, commitment, and morphogenesis—regulated by signaling cascades involving the master transcriptional regulator HetR.[10] Nitrogen starvation triggers 2-oxoglutarate (2-OG) accumulation, activating NtcA to upregulate hetR.[11]^,[12] Deletion of hetR prevents differentiation, while its overexpression induces contiguous heterocysts formation even under non-permissive conditions.[10] HetR initiates a negative feedback loop by activating patS expression.[13] The resulting 17-amino-acid product is processed into the signalin ...

HetR / hetP promoter = experiment: EMSA of HetR with the hetP promoter; type: biochemical, Nostoc PCC 7120; conditions: HetR 1 μM, hetP promoter 50 nM (6-FAM), peptide 1 μM, pH 8, 4°C, 30 minutes, one representative result
Description: Heterocysts are indicated by white arrows. Time denotes hours post combined nitrogen starvation. Scale bars, 30 μm. […] Sector 1: wild-type. Sector 2: malE mutant. […] Red color indicates MBP periplasmic export.
The hetP gene promoter (alr2818) was amplified by PCR using PhetP fw and PhetP rv primers, with the forward primer labeled at the 5′ end with 6-FAM. Purified HetR protein (as previously described),[3] was incubated with the hetP promoter (50 nM) in a buffer containing 10 mM Tris (pH 8), 150 mM KCl, 500 nM EDTA, 0.1% Triton X-100, 12.5% glycerol, 1 mM DTT, and 1 μg DiDC competitor at 4°C in the dark for 30 minutes. Electrophoresis was conducted at 250 V for 60 minutes, and DNA was visualized using the Typhoon FLA 9500.

[2] = system: Nostoc heterocyst differentiation; conditions: cited from earlier work
[3] = system: Nostoc PCC 7120 heterocyst differentiation; conditions: cited from earlier work
From the text: While hetR is conserved across heterocyst-forming cyanobacteria, patS and hetN are not,[23] implying the existence of additional inhibitory factors. Recently, PatX, containing the HRGTGR hexapeptide, was identified as coextensive with HetR in filamentous cyanobacteria.[23]

HetR (Nostoc PCC 7120) = molecular target: T2, HetR (Nostoc PCC 7120) (UniProt P27709); experiment: EMSA; conditions: EMSA: 10 mM Tris pH 8, 150 mM KCl, 500 nM EDTA, 0.1% Triton X-100, 12.5% glycerol, 1 mM DTT, 1 ug DiDC competitor (so in the source), 50 nM DNA, 4 C, 30 min in the …
T2 sequence: T1 sequence (P27709 1-299)

HetR [4] = molecular target: T3, HetR (Nostoc PCC 7120, UniProt P27709 1-299); experiment: ITC; PatX6 (200 μM, syringe) titrated into HetR (22 μM, cell), 25°C, PBS pH 7.4, one-site binding model, MicroCal PEAQ-ITC; conditions: both partners purified
T3 construct: HetR, master transcriptional regulator of heterocyst differentiation, Nostoc/Anabaena PCC 7120; purified protein used in ITC and EMSA; also called master transcriptional regulator HetR; source: purified (as previously described)
T3 sequence (looked up): T1 sequence (P27709 1-299)

AFSPSNSQNMISLK [non-tryptic PatX cleavage peptide flanking HRGTGR, detected by mass spectrometry]
detection of non-tryptic cleavage peptide (Alr1666 (PatP)): exclusively present in peptidase-producing strains

ERGSGR [PatS6, signaling peptide PatS6 (ERGSGR), positive control in EMSA]
binding to HetR and effect on its DNA-binding function (HetR [1]): binds to HetR to inhibit its DNA-binding function | effect on HetR-hetP promoter interaction (HetR / hetP promoter): abolished this interaction | effect of exogenous peptide on differentiation [2]: suppress differentiation

GPDIIFWAHDR [non-tryptic PatX cleavage peptide flanking HRGTGR, detected by mass spectrometry]
detection of non-tryptic cleavage peptide (Alr1666 (PatP)): exclusively present in peptidase-producing strains

PatS: 17-amino-acid product of patS, processed into PatS5 or PatS6 (MKAIMLVNFCDERGSGR; UniProt O52748 1-17, looked up)
effect of overexpression on heterocyst differentiation [3]: inhibits heterocyst differentiation

RGSGR [PatS5, signaling peptide PatS5 (RGSGR)]
binding to HetR and effect on its DNA-binding function (HetR [1]): binds to HetR to inhibit its DNA-binding function | effect of exogenous peptide on differentiation [2]: suppress differentiation

TGAGTTATACGCTATATCAATGGGGATTTTGAGCATTTTCTACTAGGTAATGAGGGGTTAGACCCCTCGCCTACTGTGCATTTGAGACTTTAAACCTACTAAGAGAATTTACCACTAAAT (double strand) [hetP promoter PCR fragment]
binding (HetR (Nostoc PCC 7120)): binds

B1: PatX-6 peptide (HRGTGR) (peptide)
peptide: HRGTGR
notes: also called PatX6 hexapeptide; PatX-derived hexapeptide; source: synthetic peptide (Genecust)
Kd (HetR [4]): 88 nM

B2: HetN: another inhibitor that maintains heterocyst patterning, containing the RGSGR pentapeptide (protein, UniProt P37694 1-287, looked up)
Ketoacyl reductase HetN: MTTLTGKTVLLTGASRGLGVYIARALAKEQATVVCVSRSQSGLAQTCNAVKAAGGKAIAIPFDVRNTSQLSALVQQAQDIVGPIDVLINNAGIEINGTFANYSLAEIQSIFNTNLLAAMELTRLLLPSMMERGSGRIVNIASLAGKKGVAFNSVYSASKAGLIMWTDAMRQELVGTGVNISVVCPGYVSQTGMTVDTRVSAPKLAGISTPKSVANAVVKAIKNKTTEVIVNQNPITESLTKLMLAVGQISPTSVDRIYRWFGVVDFNQKRAENRVKDGYVAVESHRS
effect of overexpression on heterocyst differentiation [3]: inhibits heterocyst differentiation

Source: paper PMC12756182, “Co-option of an ancestral peptidase controls developmental patterning in multicellular cyanobacteria” (iScience, 2025)
